“And” between values parts separate entries of the source, which are not always exact repeats. Equal entries are not always repeated. Where two headings read alike, the source gives them in different places.
Columns and labels:
[1] = QACs; cited from earlier work
[2] = test system: Acanthamoeba trophozoites; experiment: Checkerboard dilution QAC-APC interaction (Bliss model); type: cell-based, Acanthamoeba castellanii; conditions: APC12, APC14, APC16; 96 h at 25° C.
Experimental: Acanthamoeba trophozoites (10^5 cells/ml. n=5/treatment) treated with 100 μg/ml doubly diluted to 0.06 μg/ml of QAC12 (FIG. 7A), […], QAC16 (FIG. 7C) and QAC18 (FIG. 7D) with APC 12 (i), APCI 4 (ii) and APC16 (iii) for 96 h at 25° C. Cell viability estimated by the alamarBlue assay the dose-response curves used to produce a surface analysis (right panel) and the interaction profile determined using the Bliss model. The degree of interaction characterised by the QCScore heuristic score are produced as heat map (left panel). The colour of each cell in the heatmap and the surface analysis represents the assay response at that dose combination; red to orange, antagonistic: yellow to green, additive and blue, synergistic.
The change in potency between QAC and APC prompted us to used the checkerboard dilution method to identify synergistic interactions (FIG. 7A-D). Three interaction profiles, antagonistic (orange to red), additive (yellow to green) and synergistic (blue) were observed, with optimal synergistic interactions deemed to be significant occurring between 20-38%; (FIG. 7).

[3] = test system: A. castellanii cysts; experiment: Drug wash-out / alamarBlue-reversion assay, cysts; type: cell-based, Acanthamoeba castellanii ATCC 50370; conditions: for Back transformation to trophozoites after drug wash-out: Cysts; on Back transformation to trophozoites after drug wash-out: key: +: indicates cells reverting back to trophozoites after washout; and capable of oxidizing reduced alamarBlue from blue to pink after 8 days; −: indicates cell that did not revert to trophozoites after wash-out and unable to oxidise reduced alamarBlue solution
Experimental: For the drug kinetic assay, viability was assessed by the linked alamarBlue-reversion assay. Drug-treated cysts were washed with PBS and fresh PG medium was added to allow reversion to trophozoites for 5 days, after which, alamar blue was added and viability estimated as described above.
The cysticidal activity of QAC16 to QAC18 strongly correlated with (a) the alkyl-carbon chain lengths (Table 2) and the duration of drug contact (FIG. 8H). Like trophozoites, death was via leakage judged by 40% and 50% increase in DNA and proteins in the external milieu after 1 h (FIGS. 9A and 9B). To investigate if the cyst were viable, a complementary viability assay that involved, drug washout, incubation in PG medium to allow reversion of viable cyst to trophozoite for 7 days, and estimation of viability using the oxidation of resazurin after 6 h.

[4] = test system: A. castellanii cysts; experiment: Cytotoxicity assay on cysts (trypan blue); type: cell-based, Acanthamoeba castellanii ATCC 50370; conditions: Acanthamoeba castellanii
Experimental: (§1) Acanthamoeba castellanii ATCC 50370 trophozoites and cysts were cultured in Peptone Glucose (PG) medium and encystment medium (Chagla A H, Griffiths A J (1974) Microbiology: 85(1): 139-145) respectively at 25° C. Cysts were prepared by incubating trophozoites for 8 days in encystment medium and integrity validated with calcofluor (0.25 μg/ml) assay (Gatti S et al (2010) J. Med. Microbiol.; 59: 1324-1330) or sodium dodecyl sulfate (SDS, 0.5% w/v) disintegration assay (Dudley R et al (2005) Acta Trop.; 9: 100-8) and microscopic observation.
The compounds used in this study all contained alkyl-carbon chains: three APCs [dodecyl-PC (APC12), tetradecyl-PC. (APC14) and hexadecyl-PC (APC16)] (Anatrace) and four QACs [docdecyl-TMAB (QAC12), tetradecyl-TMAB (QAC14), hexadecyl-TMAB (QAC16) and octadecyl-TMAB (QAC18)](Sigma). All were prepared to a stock concentration of 1 mg/ml and diluted as required by the experimental protocol in the cytotoxicity assays. A. castellanii trophozoites and cysts (at 10^5 cells/ml) with or without APCs or QACs (concentrations ranging from […] doubly diluted to 0.04 μg/ml to a final volume of 100 μl) in a 96-well plate were incubated at 25° C. for a duration determined by the experimental protocol.
For the combined assay, similar concentrations of QAC18 and APC16 were prepared and 18.75 μg/ml and 37.5 μg/ml of QAC12 added (to a final volume of 100 μl) were added to 10^5 cells/mi in a 96-well plate and later incubated at 25° C. for a duration determined by the experimental protocol. Resazurin (7-Hydroxy-31-phenoxazin-3-one 10-oxide; 5 mg/ml; McBride J et al (2005) J. Clin. Microbiol.; 43: 629-634) and trypan blue (0.4 μg/ml; Mafra C S P et al (2013) Investig. Ophthalmol. Vis. Si.; 54: 6363-6372) were then added to trophozoites and cysts respectively after being exposed to the compounds and the cell viability estimated microscopically and from changes in absorbance (at 595 nm and 570 nm) respectively.
(§2) Efficacy was expressed as a percentage of untreated controls for each drug concentration used and the data used to calculate the IC50. Cell density was estimated using the modified Neubaur hemocytometer and expressed as cells/ml.

[5] = test system: A. castellanii trophozoites; experiment: Cytotoxicity assay on trophozoites (resazurin / alamarBlue); type: cell-based, Acanthamoeba castellanii ATCC 50370; conditions: Acanthamoeba castellanii; Table 2; read-out: IC50 A. castellanii trophozoites
Experimental: as §1
The compounds used in this study all contained alkyl-carbon chains: three APCs [dodecyl-PC (APC12), tetradecyl-PC. (APC14) and hexadecyl-PC (APC16)] (Anatrace) and four QACs [docdecyl-TMAB (QAC12), tetradecyl-TMAB (QAC14), hexadecyl-TMAB (QAC16) and octadecyl-TMAB (QAC18)](Sigma). All were prepared to a stock concentration of 1 mg/ml and diluted as required by the experimental protocol in the cytotoxicity assays. […]
[…] Resazurin (7-Hydroxy-31-phenoxazin-3-one 10-oxide; 5 mg/ml; McBride J et al (2005) J. Clin. Microbiol.; 43: 629-634) and trypan blue (0.4 μg/ml; Mafra C S P et al (2013) Investig. Ophthalmol. Vis. Si.; 54: 6363-6372) were then added to trophozoites and cysts respectively after being exposed to the compounds and the cell viability estimated microscopically and from changes in absorbance (at 595 nm and 570 nm) respectively.
as §2

[6] = test system: A. castellanii trophozoites; experiment: Drug wash-out / alamarBlue-reversion assay, trophozoites; type: cell-based, Acanthamoeba castellanii ATCC 50370

SMILES	CMC [1] [µM]	Interaction profile of QAC combined with APCs [2]	Back transformation to trophozoites after drug wash-out ([3]; 9.375 μg/ml, 24 h)	Back transformation to trophozoites after drug wash-out ([3]; 9.375 μg/ml, 48 h)	Back transformation to trophozoites after drug wash-out ([3]; 9.375 μg/ml, 72 h)	Back transformation to trophozoites after drug wash-out ([3]; 18.75 μg/ml, 24 h)	Back transformation to trophozoites after drug wash-out ([3]; 18.75 μg/ml, 48 h)	Back transformation to trophozoites after drug wash-out ([3]; 18.75 μg/ml, 72 h)	Back transformation to trophozoites after drug wash-out ([3]; 37.50 μg/ml, 24 h)	Back transformation to trophozoites after drug wash-out ([3]; 37.50 μg/ml, 48 h)	Back transformation to trophozoites after drug wash-out ([3]; 37.50 μg/ml, 72 h)	IC50 [5]	Back transformation to trophozoites after drug wash-out ([6]; 9.375 μg/ml, 1 h)	Back transformation to trophozoites after drug wash-out ([6]; 9.375 μg/ml, 24 h)	Back transformation to trophozoites after drug wash-out ([6]; 9.375 μg/ml, 48 h)	Back transformation to trophozoites after drug wash-out ([6]; 9.375 μg/ml, 72 h)	Back transformation to trophozoites after drug wash-out ([6]; 9.375 μg/ml, 96 h)	Back transformation to trophozoites after drug wash-out ([6]; 18.75 μg/ml, 1 h)	Back transformation to trophozoites after drug wash-out ([6]; 18.75 μg/ml, 24 h)	Back transformation to trophozoites after drug wash-out ([6]; 18.75 μg/ml, 48 h)	further results
CCCCCCCCCCCCCC[N+](C)(C)C.[Br-] [QAC14, tetradecyltrimethyl ammonium bromide]	2.9 ± 0.1	less frequent and ‘noisy’	+	+	+	+	+	+	+	+	+	9.07 µg/mL and 27 µM	+	+	+	+	+	+	+	+	IC50 ([4]; Table 2, read-out: IC50 A. castellanii cysts): 22.1 µg/mL and 65 µM; IC50 ([4]; after 96 h, trypan blue viability assay, read-out: Estimated IC50 against matured cysts): 15 µg/mL; Back transformation to trophozoites after drug wash-out ([6]; 18.75 μg/ml, 72 h): +; Back transformation to trophozoites after drug wash-out ([6]; 18.75 μg/ml, 96 h): +; Back transformation to trophozoites after drug wash-out ([6]; 37.50 μg/ml, 1 h): +; Back transformation to trophozoites after drug wash-out ([6]; 37.50 μg/ml, 24 h): −; Back transformation to trophozoites after drug wash-out ([6]; 37.50 μg/ml, 48 h): −; Back transformation to trophozoites after drug wash-out ([6]; 37.50 μg/ml, 72 h): −; Back transformation to trophozoites after drug wash-out ([6]; 37.50 μg/ml, 96 h): −; Amoebotoxicity after wash-out and replacement with PG medium ([6]; after 24 h at 18.75 μg/ml): amoebotoxic
CCCCCCCCCCCCCCCC[N+](C)(C)C.[Br-] [QAC16, hexadecyltrimethyl ammonium bromide]	0.26 ± 0.2	less frequent and ‘noisy’	+	+	+	+	+	+	+	−	−	4.9 µg/mL and 19 µM	+	+	+	+	+	+	−	−	Resurgence of cysts after drug washout ([3]; 37.5 μg/ml after 48 h): No resurgence; IC50 ([4]; 96 h, read-out: Estimated IC50 against matured cysts): 19 ± 0.03 µg/mL; IC50 ([4]; read-out: IC50 A. castellanii cysts): 19.2 µg/mL and 72 µM; Back transformation to trophozoites after drug wash-out ([6]; 18.75 μg/ml, 72 h): −; Back transformation to trophozoites after drug wash-out ([6]; 18.75 μg/ml, 96 h): −; Back transformation to trophozoites after drug wash-out ([6]; 37.50 μg/ml, 1 h): −; Back transformation to trophozoites after drug wash-out ([6]; 37.50 μg/ml, 24 h): −; Back transformation to trophozoites after drug wash-out ([6]; 37.50 μg/ml, 48 h): −; Back transformation to trophozoites after drug wash-out ([6]; 37.50 μg/ml, 72 h): −; Back transformation to trophozoites after drug wash-out ([6]; 37.50 μg/ml, 96 h): −; Amoebotoxicity after wash-out and replacement with PG medium ([6]; after 24 h at 18.75 μg/ml): amoebotoxic; Amoebotoxicity after wash-out and replacement with PG medium ([6]; from 1 h onwards at 37.5 μg/ml): amoebotoxic
